Test results as given in US7972800B2, “Screening method for binding property or signal transduction alterations” (Takeda Pharmaceutical Company Limited, priority 2003, dated 2011).

What was measured:
[1] = test system: bladder (micturition) of conscious rats; experiment: Cystometry in conscious rats with intravesical infusion; assay type: in vivo, rat; conditions: female SD rats, protamine sulfate 10 mg/mL in PBS infused into the bladder for an hour
Procedure: Female SD rats of 9-10 weeks old were anaesthetized by intramuscular injection with 0.1 ml/100 g of a solution obtained by mixing ketamine (50 mg/mL) and xylazine (20 mg/mL) in 5:1. The bladder was then exposed via a midline incision and a hole was made with a 20-G needle to insert a polyethylene tube (PE-50), which tube was sutured to the bladder with cotton thread. The polyethylene tube cannulated into the bladder was cut at a length of about 1 cm, which was connected to a silicon tube (No. 00) and exposed to the dorsum through the skin. The animals were housed in individual cages until they were used for the experiments.
One day after the surgery, the animal was anesthetized with halothane and placed in Ballman cages under restricted conditions. After a three-way cock was connected to the tube cannulated into the bladder, a saline infusion tube was connected to a cystometry tube (resistance to infusion). An electronic scale was placed under the Ballman cages and the micturition volume was measured at the same time. When the anesthetic completely worn off, the infusion of saline into the bladder commenced and the bladder pressure and micturition volume were recorded on a personal computer via an A-D converter (MP-100, BIOPAC Systems) and analyzed using a dedicated software (AcqKnowledge, BIOPAC Systems).
Saline was infused into the bladder at the rate of 6 ml/hr and the infusion was continued for 1 or 2 hours until stable micturition was recorded. In order to enhance the permeability of a drug into the bladder, protamine sulfate (10 mg/mL in PBS) was infused into the bladder for an hour (Chuang Y, et. al., 2003, Urology, 63, 664-670). […] Then, saline was reinfused into the bladder and micturition was recorded at least 2 hours until protamine was completely washed off. […] Mean micturition intervals during from about 30 minutes to about 60 minutes after starting the infusion of CuCl2 were calculated to find a ratio to mean micturition intervals for about 30 minutes before the infusion of CuCl2 (% of the pre-value).

[2] = test system: rat GPR39; assay type: cell-based; conditions: FLIPR, Fluo-3AM (FIG. 9 through FIG. 13)
Procedure: (§1) Using the CHO cell line where rat GPR39 was stably expressed, the agonist activity of metal ions was detected using FLIPR in terms of the intracellular calcium-increasing reaction as an indicator. The CHO cell line used, wherein rat GPR39 was stably expressed, was cultured in HAM's αMEM (Invitrogen Corp.) containing 10% calf fetal serum (Invitrogen Corp.). On the day before the assay was conducted, the human GPR39-expressing CHO cell line was cultured in a culture flask to reach a confluent state. After washing with PBS, the cells were scraped off using trypsin and centrifuged for recovery. The cells were then suspended in medium and the suspension was adjusted to 3×10^5 cells/ml. Then, the suspension was dispensed onto a black walled 96-well plate (Costar) in 100 μl each per well, followed by incubation overnight in a CO2 incubator.
(§2) On the day when the assay was conducted, various test samples were added to the cells and the changes of intracellular calcium levels in this case were determined by FLIPR (Molecular Device). In order to determine the changes in intracellular calcium levels on FLIPR, the cells were pre-treated by the following procedures. First, for the purpose of adding a fluorescent dye Fluo-3AM (DOJIN) to the cells or washing the cells immediately before the FLIPR assay, an assay buffer was prepared. A solution was prepared by adding 20 ml of 1M HEPES (pH 7.4) (DOJIN) to 1000 ml of HBSS (Invitrogen Corp.) (hereinafter HBSS/HEPES solution), to which solution was added 10 ml of a solution mixture obtained by dissolving 710 mg of Probenecid (Sigma) in 5 ml of 1N NaOH and further adding 5 ml of HBSS/HEPES solution thereto. The resulting solution was used as the assay buffer. Next, 50 μg of Fluo-3AM was dissolved in 21 μl of DMSO (DOJIN) and an equal volume of 20% Pluronic acid (Molecular Probes) was added to and mixed with the solution. The mixture was then added to 10.6 ml of the assay buffer supplemented with 105 μl of fetal calf serum to prepare a fluorescent dye solution. The medium for the CHO cells where human GPR39 was stably expressed was removed. Immediately thereafter, the fluorescent dye solution was dispensed in 100 μl each/well and the cells were incubated in a CO2 incubator for an hour so that the fluorescent dye was taken up into the cells. The cells after the incubation was washed with the assay buffer described above and set on FLIPR. A test sample to be added to the CHO cells where rat GPR39 was stably expressed was prepared using the assay buffer and set on FLIPR at the same time. Following the pre-treatment above, the changes in intracellular calcium levels after the addition of each test sample were determined by FLIPR.

[3] = test system: CHO cells where the receptor was not expressed or GPCR other than GPR39 was expressed; assay type: cell-based; conditions: FLIPR; control cells
[4] = molecular target: T1, mouse GPR39 (Mus musculus, UniProt Q5U431, T447P); assay type: cell-based; conditions: FLIPR, Fluo-3AM (FIG. 14 through FIG. 18)
T1 construct: expressed in transfected cells; host or cells: CHO cells, vector pAKKO-111H
T1 sequence (Q5U431 1-456 T447P): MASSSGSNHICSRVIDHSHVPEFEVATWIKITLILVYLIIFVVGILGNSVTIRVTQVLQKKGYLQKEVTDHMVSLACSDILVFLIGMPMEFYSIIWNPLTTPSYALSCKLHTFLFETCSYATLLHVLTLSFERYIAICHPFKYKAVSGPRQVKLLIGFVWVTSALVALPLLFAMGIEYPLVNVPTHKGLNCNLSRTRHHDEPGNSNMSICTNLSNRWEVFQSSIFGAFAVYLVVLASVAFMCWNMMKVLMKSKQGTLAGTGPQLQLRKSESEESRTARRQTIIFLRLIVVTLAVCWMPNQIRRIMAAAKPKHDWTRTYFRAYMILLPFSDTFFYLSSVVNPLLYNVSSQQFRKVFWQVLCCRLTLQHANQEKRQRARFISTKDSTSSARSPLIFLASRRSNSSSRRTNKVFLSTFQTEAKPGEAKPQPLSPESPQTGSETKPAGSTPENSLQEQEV
Procedure: as §1, §2
Using the CHO cell line where mouse GPR39 was stably expressed, the agonist activity of metal ions was detected on FLIPR in accordance with the procedures described in EXAMPLE 5, in terms of the intracellular calcium-increasing reaction as an indicator.

[5] = molecular target: T2, human GPR39 (Homo sapiens, UniProt O43194); assay type: cell-based; design: expressed in transfected cells; host or cells: CHO cells, vector pAKKO-111H; conditions: FLIPR, Fluo-3AM; metal salt added, 10-300 μM (FIGS. 1-4)
T2 sequence (O43194 1-453): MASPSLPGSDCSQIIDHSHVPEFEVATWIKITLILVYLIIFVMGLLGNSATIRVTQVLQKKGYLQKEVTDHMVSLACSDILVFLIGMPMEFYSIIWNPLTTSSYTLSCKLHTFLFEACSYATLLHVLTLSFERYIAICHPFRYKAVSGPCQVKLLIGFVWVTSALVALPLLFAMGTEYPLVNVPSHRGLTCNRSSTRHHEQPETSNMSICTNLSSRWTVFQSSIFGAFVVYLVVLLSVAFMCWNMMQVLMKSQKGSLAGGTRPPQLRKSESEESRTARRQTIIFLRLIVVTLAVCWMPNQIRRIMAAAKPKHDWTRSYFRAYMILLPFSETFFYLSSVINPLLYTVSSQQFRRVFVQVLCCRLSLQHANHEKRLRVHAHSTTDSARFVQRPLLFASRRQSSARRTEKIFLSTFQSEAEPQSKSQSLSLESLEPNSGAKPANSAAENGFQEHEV
Procedure: The human GPR39-GFP expression vector-transfected CHO cell line produced in EXAMPLE 1 (CHO/hGPR39-GFP) was diluted in 3×10^4 cells/100 μl. The dilution was dispensed onto a Black walled 96-well plate (Costar) in 100 μl each per well, followed by incubation overnight in a CO2 incubator. Changes in intracellular calcium levels were determined by the following method using FLIPR (Molecular Device). In 21 μl of DMSO (DOJIN), 50 μg of Fluo-3AM (DOJIN) was dissolved and an equal volume of 20% Pluronic acid (Molecular Probes) was added to the solution. After mixing them, the resulting mixture was added to 10.6 ml of assay buffer [prepared by adding 20 ml of 1M HEPES (pH 7.4) (DOJIN) to HBSS (Invitrogen Corp.) and further adding to the solution 10 ml of a solution mixture, which mixture was prepared by dissolving 710 mg of Probenecid (Sigma) in 5 ml of 1N NaOH and then adding thereto 5 ml of the HBSS/HEPES solution above] supplemented with 105 μl of fetal calf serum to prepare a fluorescent dye solution. The medium in the cell plate was removed. Immediately thereafter, the fluorescent dye solution was dispensed in 100 μl each/well and the cells were incubated in a CO2 incubator for an hour so that the fluorescent dye was taken up into the cells. The cells after the incubation were washed with the assay buffer described above and set on FLIPR. Compounds of metal elements to be added to the cells were diluted to the respective concentration with the assay buffer. The dilutions were dispensed onto plates for ligands and set on FLIPR. Following the pre-treatment above, changes in intracellular calcium levels after addition of metal elements were determined by FLIPR to study agonist activities.

Compound | micturition intervals compared to those prior to the infusion [1] | intracellular calcium levels of CHO/rGPR39 [2] | intracellular calcium response in CHO cells without the receptor or with GPCR other than GPR39 [3] | intracellular calcium levels of CHO/mGPR39 [4] | intracellular calcium levels of CHO/hGPR39-GFP [5]
protamine sulfate | Any substantial change in micturition intervals was noted | – | – | – | –
[Cl-].[Cl-].[Zn+2] [zinc chloride] | – | dose-dependently increased | no such response was observed | dose-dependently increased | dose-dependently increased
[Cl][Cd][Cl] [cadmium chloride] | – | dose-dependently increased | no such response was observed | dose-dependently increased | dose-dependently increased
[Cl][Co][Cl] [cobalt chloride] | – | dose-dependently increased | – | dose-dependently increased | –
